Measured values from article PMC8704389, “New Insights into the Hypotensins from Tityus serrulatus Venom: Pro-Inflammatory and Vasopeptidases Modulation Activities” (Toxins, 2021).
Several values for one entry are separate records, joined by “and”; a condition that tells them apart may be missing. Equal values may be shown once. No end group written: not given here.

Key:
ACE = molecular target: T1, ACE (Oryctolagus cuniculus, UniProt P12822); assay: Modulation of ACE activity, FRET substrate Abz-FRK(Dnp)P-OH; format: biochemical, rabbit; settings: 10 µM peptide, 3.0 ng ACE, 10 µM Abz-FRK(Dnp)P-OH, Tris HCl 100 mM, NaCl 50 mM, ZnCl2 10 µM, pH 7.0, 37 °C, 15 min, fluorescence 320/420 nm, triplicate
T1 construct: Angiotensin Converting Enzyme (ACE) from rabbit lung; purchased Sigma-Aldrich; host or cells: rabbit lung tissue
T1 sequence (P12822 34-1310): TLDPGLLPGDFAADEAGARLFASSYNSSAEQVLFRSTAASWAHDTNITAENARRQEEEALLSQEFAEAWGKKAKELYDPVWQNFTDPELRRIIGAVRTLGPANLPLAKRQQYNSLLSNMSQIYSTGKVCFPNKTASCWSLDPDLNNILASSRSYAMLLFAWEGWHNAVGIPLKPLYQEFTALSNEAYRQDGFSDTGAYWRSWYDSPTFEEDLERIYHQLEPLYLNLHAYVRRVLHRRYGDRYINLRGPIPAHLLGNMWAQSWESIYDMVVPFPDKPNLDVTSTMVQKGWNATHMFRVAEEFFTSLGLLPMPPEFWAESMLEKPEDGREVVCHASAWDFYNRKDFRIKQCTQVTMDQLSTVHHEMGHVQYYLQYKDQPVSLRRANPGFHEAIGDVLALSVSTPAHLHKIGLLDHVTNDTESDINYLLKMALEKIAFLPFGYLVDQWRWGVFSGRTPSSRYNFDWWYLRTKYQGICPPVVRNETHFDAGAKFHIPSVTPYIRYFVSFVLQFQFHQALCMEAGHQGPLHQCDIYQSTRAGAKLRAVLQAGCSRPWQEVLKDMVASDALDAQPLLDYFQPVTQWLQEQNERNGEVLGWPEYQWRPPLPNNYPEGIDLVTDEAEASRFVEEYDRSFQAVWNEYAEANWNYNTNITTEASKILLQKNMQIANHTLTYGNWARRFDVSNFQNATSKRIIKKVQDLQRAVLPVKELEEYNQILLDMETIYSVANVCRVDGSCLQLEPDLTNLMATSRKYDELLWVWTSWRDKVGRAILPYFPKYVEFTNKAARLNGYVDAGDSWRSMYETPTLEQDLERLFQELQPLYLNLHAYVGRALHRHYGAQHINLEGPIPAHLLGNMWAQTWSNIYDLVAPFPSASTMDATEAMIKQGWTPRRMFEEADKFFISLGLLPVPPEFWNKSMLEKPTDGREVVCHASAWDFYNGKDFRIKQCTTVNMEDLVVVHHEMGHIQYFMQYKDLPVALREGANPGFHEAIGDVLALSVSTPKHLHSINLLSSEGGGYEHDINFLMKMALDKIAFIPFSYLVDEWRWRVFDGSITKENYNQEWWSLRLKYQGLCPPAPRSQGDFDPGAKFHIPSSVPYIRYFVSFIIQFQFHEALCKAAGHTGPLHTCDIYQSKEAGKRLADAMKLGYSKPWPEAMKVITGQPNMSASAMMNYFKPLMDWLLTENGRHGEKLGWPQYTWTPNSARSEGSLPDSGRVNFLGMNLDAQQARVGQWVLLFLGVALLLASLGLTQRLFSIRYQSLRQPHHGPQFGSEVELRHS
Protocol: The results were obtained by incubating the enzymes with their FRET substrates (10 µM) in a final volume of 100 µL. For the ACE assays, the used buffer was Tris HCl 100 mM, NaCl 50 mM and ZnCl2 10 µM, pH 7.0. For NEP, the assays were made in Tris HCl 50 mM, pH 7.5 buffer. All reactions occurred at 37 °C, in a Victor 3 fluorimeter (Perkin–Elmer) adjusted for excitation and emission readings at 320 and 420 nm, respectively, for 15 min (one reader per minute). Results were obtained in triplicate and analyzed on GraFit 5 software.
For ACE assays, 10 µM of each peptide was incubated with 3.0 ng of peptidase and 10 µM of Abz-FRK (Dnp) P-OH substrate, in Tris HCl 100 mM, NaCl 50 mM and ZnCl2 10 µM, pH 7.0 buffer. For NEP, 10 µM of TsHpt-I or -II was incubated with 1.5 ng of peptidase, 3.5 µM Abz-RGFK (Dnp)-OH in Tris HCl 50 mM, pH 7.5 buffer. All reactions occurred at 37 °C, in a final volume of 100 µL, in a Victor 3 fluorimeter (Perkin–Elmer, Waltham, MA, USA) adjusted for excitation and emission readings at 320 and 420 nm, respectively, for 15 min (one reader per minute). Results were obtained in triplicate and analyzed using GraFit 5 (Erithacus software, East Grinstead, West Sussex, UK).

[1] = tested on: murine peritoneal macrophages; assay: Cytokine production by murine peritoneal macrophages, CBA method; format: cell-based, BALB/c mice; settings: 24 h; for release of IL-10, IL-12p70, IFN-γ and MCP-1: 10, 50 and 100 µg/mL, data not shown
Protocol: Figure 4 Cytokine production by murine peritoneal macrophages stimulated in vitro with TsHpt-I and -II. Peritoneal exudate macrophages from naïve BALB/c mice were cultured for 24 h in the presence of TsHpt-I (A,C) and -II (B,D), at concentrations of 10 µg/mL, 50 µg/mL and 100 µg/mL. Cells cultured with medium alone or in the presence of 5 µg/mL LPS were used as negative and positive controls, respectively. The concentrations of TNF (A,B) and IL-6 (C,D) were determined by the CBA method, according to the manufacturer’s instructions. The results represent the mean ± SD of three independent experiments performed in triplicate. * p < 0.05.
Peritoneal exudate cells (BALB/c naïve mice, n = 6) were collected by two washes with 5 mL of RPMI medium. The cells obtained were washed twice with RMPI medium, at 400 g, for 10 min, at 18 °C, and resuspended in R10 medium (RPMI + 10% fetal cow serum). After counting in a Neubauer chamber, in the presence of Trypan blue, the cell concentration was adjusted to 2 × 10^6 cells/mL. Cells were distributed into 96-well culture plates (2 × 10^5 cells/100 µL/well) and incubated for 2 h at 37 °C and 5% CO2. After incubation, non-adherent cells were discarded, and adherent cells (macrophages) were resuspended in R10 medium containing the respective tested stimuli, at different concentrations, in triplicates, in a final volume of 200 µL/well. Cells resuspended in R10 medium were used as a negative control, and cells stimulated with LPS (5 µg/mL) as a positive control. Cells were then incubated for 24 h at 37 °C and 5% CO2. After this period, the culture supernatants were collected and stored at −80 °C, for subsequent dosage of cytokines, and cell viability was determined by MTT assay.
The concentration of pro- and anti-inflammatory cytokines (IL-6, IL-10, IL-12p70, […], MCP-1 and TNF) in the samples incubated with both hypotensins (10 µg/mL, 50 µg/mL and 100 µg/mL) was determined by the CBA method (BD Cytometric Bead Array Mouse Inflammation Kit), according to the manufacturer’s instructions. The samples were acquired in a BD FACSCanto II flow cytometer, and the data were analyzed using BD FCAP Array version 3.0 software.

[2] = 100 µg/mL, three independent experiments in triplicate

Sequence	ACE Activation (%) (ACE)	release of IL-6 [1, 2]	release of TNF [1, 2]	release of IL-10, IL-12p70, IFN-γ and MCP-1 [1]
AEIDFSGIPEDIIKEIKETNAKPPA [TsHpt-II]	46% and 44%	induced the release of IL-6	release of significant levels of TNF	None of the peptides were able to induce the release
AEIDFSGIPEDIIKQIKETNAKPPA [TsHpt-I]	64%	–	release of significant levels of TNF	None of the peptides were able to induce the release
